Reference: US20100183669A1, “Mannose immunogens for HIV-1” (University of Oxford, priority 2005, published 2010)

What was measured:
[1] = tested on: ER- and Golgi-resident class I α-mannosidases; conditions: relative to DMJ; cited from earlier work
2G12 [2] = experiment: 2G12 binding ELISA of self glycoproteins CD48 and RPTPmu expressed in HEK293T cells with kifunensine; conditions: glycoproteins expressed in HEK293T cells with 5 μM kifunensine, FIG. 4
Protocol: The aim of this study is to generate ‘self’ glycoproteins bearing oligomannose glycans which bind a 2G12 antibody and consequently display antigenic cross-reactivity with the HIV gp120. Two target glycoproteins, CD48 and Receptor Protein Tyrosine Phosphates mu (RPTPmu) were expressed in HEK293T cells in the presence of the mannosidase inhibitor kifunensine at 5 μM concentration. To verify that the mannosidase inhibitor was effective in producing glycoprotein containing oligomannose glycans, the glycans were released by digestion with protein N-glycanase F (PNGase F) and were then analysed by high-performance liquid chromatography (HPLC) and matrix assisted laser desorption/ionisation mass spectrometry (MALDI-MS).
The resulting glycoproteins containing oligomannose-type N-linked glycans were tested for 2G12 binding by ELISA (FIG. 4). Particularly, 15.6 μg of CD48, 2 μg, 1 μg and 0.4 μg of RPTPmu were plated and 1 μg of non-kifunensine treated IgG was plated as a negative control.

monoclonal antibody 2G12 = experiment: 2G12 sandwich ELISA of gp120 from CHO cells grown with or without kifunensine; type: binding; conditions: for binding to the monoclonal antibody 2G12 in ELISA: gp120 produced in CHO cells in the presence of kifunensine, compared with absence
Protocol: To investigate the role of mannosidase inhibition, by kifunensine, on the formation of the 2G12 epitope, Chinese Hamster Ovary (CHO) cells, transfected with EE6HCMV gp120GS, secreting recombinant HIV-IIIB gp120, were cultured in CB2 DMEM Base culture medium supplemented with foetal calf serum (10%), penicillin (50 U/ml) and streptomycin (50 ^1g/ml). All reagents were obtained from Gibco Ltd, Uxbridge, UK. High expression of gp120 was maintained by the addition of methionine sulphoximine (200 nM). Cells were grown in the presence and absence kifunensine (see FIG. 1A, 1B).
Glycoproteins were immobilized on plastic protein-binding plates. For the first experiment (FIG. 1A) 2G12 (5 ug/ml) was coated onto plate, left overnight at 4° C. Plates were then blocked with Bovine Serum albumin (3% w/v) for one hour. Subsequently, supernatant from gp120IIIB expressing CHO cells (with or without kifunensine) was added for one hour, at room temperature. Plates were then washed 3 times in PBS. 2G12 (titration from 10 yg/ml) was then added. After washing 2g12 binding was determined by phosphatase-conjugated anti-IgG secondary antibody, a final wash step and then phosphatase substrate measurement (p-nitrophenylphosphate, absorbance at 405 nm).
(§1) BSA (x) was used in these experiments as a negative control.

2G12 [3] = experiment: Double antibody (b12/2G12) ELISA of gp120 captured with anti-gp120 antibody D7324; type: binding; conditions: gp120 produced with 5 μM kifunensine compared with double antibody ELISA of untreated gp120, FIG. 1 panel B
Text: Binding of gp120, and measurement of b12/2G12 was again determined by phosphatase-conjugated anti-IgG secondary antibody.
as §1

O=C1N[C@@H]2[C@@H](O)[C@@H](O)[C@H](O)[C@@H](CO)N2C1=O [kifunensine]
concentration to effect mannosidase inhibition, lower than DMJ [1]: 1000 fold

CD48: self glycoprotein expressed in HEK293T cells in the presence of 5 μM kifunensine, bearing oligomannose glycans
2G12 binding by ELISA (2G12 [2]): can bind to 2G12

RPTPmu: self glycoprotein expressed in HEK293T cells in the presence of 5 μM kifunensine, bearing oligomannose glycans
2G12 binding by ELISA (2G12 [2]): can bind to 2G12

kifunensine treated gp120: HIV-1IIIB gp120 glycoprotein produced in a CHO stable cell line in the presence of kifunensine
number of 2G12 molecules able to bind to a single gp120 molecule (monoclonal antibody 2G12; gp120 expressed in the presence of kifunensine): at least two | binding to the monoclonal antibody 2G12 in ELISA (monoclonal antibody 2G12; expressed in the presence of kifunensine): dramatically enhanced | binding to the monoclonal antibody 2G12 in ELISA (monoclonal antibody 2G12; produced in the presence of kifunensine): higher binding | additional 2G12 binding sites on each molecule of gp120 (monoclonal antibody 2G12; gp120 produced in the presence of kifunensine, two 2G12 ELISA binding assays): at least one additional 2G12 binding site | proportion of gp120 molecules able to simultaneously bind two or more 2G12 antibody molecules (monoclonal antibody 2G12; sandwich ELISA, 0-5 μM kifunensine, FIG. 1 panel A): a higher proportion | distinct epitopes for 2G12 (2G12 [3]): two distinct epitopes
